From patent publication US8835644B2, “Broad spectrum benzothiophene-nitrothiazolide and other antimicrobials” (University of Virginia Patent Foundation, priority 2009, dated 2014)
In brackets after ≈: the same amount, converted by molar mass. Like-named read-outs stand apart in the source and are kept apart here. Marks after values point to notes of the source that are not given here.

Assays:
H. pylori = assay: MIC testing by broth dilution, H. pylori; format: cell-based, Helicobacter pylori
Outline: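 Broth dilution MIC determination against H. pylori: a standard inoculum in 100 microliters of Brain Heart Infusion medium was placed in 96 well microplates. Test compounds began at 32 μg/ml in 200 microliters in well one and were serially diluted over a 32 to 0.06 range. After 24 h, plates were scored by eye and the first well without growth was recorded as the MIC.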

C. jejuni = assay: MIC testing by broth dilution, C. jejuni; format: cell-based, Campylobacter jejuni
Outline: (§1)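 Media: LB (E. coli), Trypticase Soy (S. epidermidis), BHI (C. jejuni); plank cells. C. difficile on Wilkins Chalgrin agar, anaerobic Kirby-Bauer disks, zone vs NTZ zone ratio.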

MRSA = assay: MIC testing by broth dilution, MRSA; format: cell-based, Staphylococcus aureus
Outline: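 Values are broth-dilution MICs, defined as the well showing no growth on visual reading after 24 h; the tested range was 32 to 0.06 μg/ml, in organism-specific media (LB, Trypticase Soy, Brain Heart Infusion). The C. difficile entries come instead from anaerobic Kirby-Bauer disk zones, normalised to NTZ.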

S. epidermidis = assay: MIC testing by broth dilution, S. epidermidis plank; format: cell-based, Staphylococcus epidermidis
Outline: as §1

E. coli = assay: MIC testing by broth dilution, E. coli plank; format: cell-based, Escherichia coli
Outline: as §1

C. difficile [1] = assay: Disk diffusion (Kirby Bower), C. difficile; format: cell-based, Clostridium difficile; conditions: for Disk Diffusion (%) C. difficile: zone of inhibited growth as relative ratio to the zone for NTZ; for Disk Diff (%) C. difficile: Nitazoxanide = 100
Outline: as §1

[2] = tested on: PFOR (pyruvate ferredoxin oxidoreductase); assay: Direct PFOR enzyme assay; format: biochemical
Experimental: (§2) Representative compounds of the invention were tested in a series of assays against a series of organisms as described above. […] The organisms tested include, C. difficile, H. pylori, C. jejuni, MRSA, S. epidermidis, and E. coli. S. epidermidis and E. coli were tested in the plank and biofilm assay. A disk diffusion assay was also used for C. difficile. Direct PFOR enzyme assays were also performed. All analogues and derivatives were not tested on every organism in every type of assay (the “-” in each table means that it was not tested).

C. difficile [3] = assay: MIC by agar dilution, C. difficile; format: cell-based, Clostridium difficile; conditions: Furan analogues table; read-out: MIC C. difficile
Experimental: A standard broth dilution protocol was used in 96 well microplates containing a standard dilution of the microorganism to be tested in 100 microliters of the appropriate medium. Appropriate medium: E. coli, LB medium; Staphylococcus strains, Trypticase Soy; and for H. pylori and C. jejuni, Brain Heart Infusion. The compounds to be tested were set at 32 μg/ml in 200 microliters in well one and then serially diluted to provide a range from 32 to 0.06. The wells were scored visually at 24 h. The well where there was no growth was recorded as the MIC. […]
as §2

S. epidermidis biofilm = S. epidermidis biofilm assay (activity tables); format: cell-based, Staphylococcus epidermidis
Experimental: Staphylococcal strains were cultured overnight in TSB at 37° C. with shaking, diluted in fresh medium to an OD600 of 0.01 and 200 W was dispensed into sterile flat bottom polystyrene 96 well microtiter plates (Costar 3596, Corning Inc.). […] Each compound and dilution was tested in triplicate. The plates were incubated overnight at 37° C. in a humidified incubator, without shaking and both growth and biofilm accumulation were determined at 16 h.
Following recording of turbidities, the culture medium was aspirated and the wells were washed three times with distilled water, blotted on paper towels, and fixed with 75% ethanol for 10 minutes.
To visualize biofilm material, 0.5% crystal violet was added to each well and after 5 minutes was removed and the wells washed three times with distilled water. Plates were read using a microplate reader at a wavelength of 570 nm. The dye was then extracted by adding 200 W of 95% ethanol, and the absorbance was read again at 570 nm. All assays were performed in triplicate and the mean and standard deviation determined. […]
as §2

E. coli biofilm = E. coli biofilm assay (activity tables); format: cell-based, Escherichia coli; conditions: biofilm
Outline: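 After 24 h static culture at 37 °C in wells containing NTZ, strain 042 (1:100 inoculum) biofilm was quantified by 0.5% crystal violet absorbance at 570 nm. Planktonic growth was taken from turbidity or LB plate counts as cfu/ml; all runs triplicate, reported as mean and SD.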

[4] = broth dilution, Brain Heart Infusion, 24 h, read-out: MIC (μM) H. pylori
[5] = broth dilution, Brain Heart Infusion, 24 h, read-out: MIC (μM) C. jejuni
[6] = broth dilution, Trypticase Soy, 24 h, read-out: MIC (μM) MRSA
[7] = broth dilution, Trypticase Soy, 24 h, read-out: MIC (μM) S. epidermidis Plank
[8] = broth dilution, LB medium, 24 h, read-out: MIC (μM) E. coli Plank
[9] = 2-amino-3,5-dinitrothiophene analogues table, read-out: MIC H. pylori
[10] = 2-amino-3,5-dinitrothiophene analogues table, read-out: MIC C. jejuni
[11] = 2-amino-3,5-dinitrothiophene analogues table, read-out: MIC MRSA
[12] = planktonic, 2-amino-3,5-dinitrothiophene analogues table, read-out: MIC S. epidermidis Plank
[13] = planktonic, 2-amino-3,5-dinitrothiophene analogues table, read-out: MIC E. coli Plank
[14] = 2-amino-3,5-dinitrothiophene analogues table
[15] = * biphasic initial inhibition followed by uninhibited rate, ** caused some precipitant in extract

Compound | MIC (H. pylori; [4]) | MIC (C. jejuni; [5]) | MIC (MRSA; [6]) | MIC (S. epidermidis; [7]) | MIC (E. coli; [8]) | PFOR inhibition relative to nitazoxanide (=100) [2] | MIC (H. pylori; [9]) | MIC (C. jejuni; [10]) | MIC (MRSA; [11]) | MIC (S. epidermidis; [12]) | MIC (E. coli; [13]) | Disk Diff (%) C. difficile (C. difficile [1]; [14]) | PFOR inhibition relative to nitazoxanide (=100) [2, 15] | also measured
O=C(Nc1ncc([N+](=O)[O-])s1)c1cc(C(F)(F)F)cc(C(F)(F)F)c1 [VPC16a1039] | 5.2 µM (≈ 2 µg/mL) | 41.5 µM (≈ 16 µg/mL) | 2.6 µM (≈ 1 µg/mL) | 1.9 µM (≈ 0.732 µg/mL) | 83.1 µM (≈ 32 µg/mL) | 54* % | – | – | – | – | – | – | – | Disk Diffusion (%) C. difficile (C. difficile [1]): 80%
O=C(Nc1ncc([N+](=O)[O-])s1)c1cc(C(F)(F)F)ccc1Cl [VPC16a1040] | 1.1 µM (≈ 0.387 µg/mL) | 17.1 µM (≈ 6.01 µg/mL) | 22.7 µM (≈ 7.98 µg/mL) | 22.7 µM (≈ 7.98 µg/mL) | 91.0 µM (≈ 32 µg/mL) | 68% | – | – | – | – | – | – | – | Disk Diffusion (%) C. difficile (C. difficile [1]): 90%
O=C(Nc1ncc([N+](=O)[O-])s1)c1ccc([N+](=O)[O-])o1 [VPC16b1007] | – | – | – | – | – | – | – | – | – | – | – | – | – | MIC (C. difficile [3]): 28.2 µM (≈ 8.01 µg/mL); MIC (H. pylori; Furan analogues table, read-out: MIC H. pylori): 21.1 µM (≈ 6 µg/mL); MIC (C. jejuni; Furan analogues table, read-out: MIC C. jejuni): 7.0 µM (≈ 1.99 µg/mL); MIC (MRSA; Furan analogues table, read-out: MIC MRSA): 112.6 µM (≈ 32 µg/mL); MIC (S. epidermidis; planktonic, Furan analogues table, read-out: MIC S. epidermidis Plank): 28.1 µM (≈ 7.99 µg/mL); MIC S. epidermidis Biofilm (S. epidermidis biofilm; Furan analogues table): 56.3 µM (≈ 16 µg/mL); MIC (E. coli; planktonic, Furan analogues table, read-out: MIC E. coli Plank): 14.1 µM (≈ 4.01 µg/mL); MIC (E. coli biofilm; Furan analogues table, read-out: MIC E. coli Biofilm): 26.4 µM (≈ 7.5 µg/mL); Disk Diff (%) C. difficile (C. difficile [1]; Furan analogues table): 102 ± 8%
O=C(Nc1sc([N+](=O)[O-])cc1[N+](=O)[O-])c1ccccc1 [VPC16b1090] | – | – | – | – | – | – | 1.3 µM (≈ 0.381 µg/mL) | 0.9 µM (≈ 0.264 µg/mL) | 109.1 µM (≈ 32 µg/mL) | 5.1 µM (≈ 1.5 µg/mL) | 109.1 µM (≈ 32 µg/mL) | 0% | 100** % | –
O=C(Nc1sc([N+](=O)[O-])cc1[N+](=O)[O-])c1cccc(C(F)(F)F)c1 [VPC16b1092] | – | – | – | – | – | – | 0.5 µM (≈ 0.181 µg/mL) | 2.1 µM (≈ 0.759 µg/mL) | 1.4 µM (≈ 0.506 µg/mL) | 0.2 µM (≈ 0.0723 µg/mL) | 88.6 µM (≈ 32 µg/mL) | 59% | 87** % | –
O=C(Nc1sc([N+](=O)[O-])cc1[N+](=O)[O-])c1cccs1 [VPC16b1093, N-(3,5-Dinitrothiophen-2-yl)thiophene-2-carboxamide] | – | – | – | – | – | – | – | – | – | – | – | 43% | 143% | MIC (H. pylori; Helicobacter pylori, read-out: MIC H. pylori): 2.5 µM (≈ 0.748 µg/mL); MIC (C. jejuni; Campylobacter jejuni, read-out: MIC C. jejuni): 1 µM (≈ 0.299 µg/mL); MIC (MRSA; Staphylococcus aureus, MRSA, read-out: MIC MRSA): 26.7 µM (≈ 7.99 µg/mL); MIC (S. epidermidis; Staphylococcus epidermidis, read-out: MIC S. epidermidis Plank): 13.4 µM (≈ 4.01 µg/mL); MIC (E. coli; Escherichia coli, read-out: MIC E. coli Plank): 107 µM (≈ 32 µg/mL)
O=C(Nc1sc([N+](=O)[O-])cc1[N+](=O)[O-])c1ccoc1 [VPC16b1094] | – | – | – | – | – | – | 2.7 µM (≈ 0.765 µg/mL) | 0.4 µM (≈ 0.113 µg/mL) | 56.5 µM (≈ 16 µg/mL) | 28.2 µM (≈ 7.99 µg/mL) | 113.0 µM (≈ 32 µg/mL) | 53% | 126* % | –
N#Cc1ccc(C(=O)Nc2ncc([N+](=O)[O-])s2)cc1 [VPC161086] | 9.1 µM (≈ 2.5 µg/mL) | 43.8 µM (≈ 12 µg/mL) | 14.6 µM (≈ 4 µg/mL) | 21.9 µM (≈ 6.01 µg/mL) | 87.5 µM (≈ 24 µg/mL) | 74% | – | – | – | – | – | – | – | MIC (μM) S. epidermidis Biofilm (S. epidermidis biofilm): 4.6 µM (≈ 1.26 µg/mL); MIC (E. coli biofilm; read-out: MIC (μM) E. coli Biofilm): 58.3 µM (≈ 16 µg/mL)
